Measurements taken from patent publication US9434733B2, “PDE9 inhibitors with imidazo triazinone backbone” (H. Lundbeck A/S, priority 2012, dated 2016).
pIC50: −log10 of the molar value.

Biological target: PDE9 (Homo sapiens (Human), UniProt O76083)
Test: PDE9 inhibition assay
Format: biochemical
Conditions: 10 nM 3H-cAMP, 1 hour incubation, yttrium silicate SPA beads; read-out: PDE9_IC50
Procedure: Reactions are initiated by addition of the cyclic nucleotide substrate, and reactions are allowed to proceed for one hr at room temperature before being terminated through mixing with 15 uL 8 mg/mL yttrium silicate SPA beads (Amersham).
Following a 1 hour incubation the reactions were terminated by addition of 15 uL 8 mg/mL yttrium silicate SPA beads (Amersham). […] IC50 values were calculated by non linear regression using XLfit (IDBS).

Chain of PDE9 (O76083 whole entry): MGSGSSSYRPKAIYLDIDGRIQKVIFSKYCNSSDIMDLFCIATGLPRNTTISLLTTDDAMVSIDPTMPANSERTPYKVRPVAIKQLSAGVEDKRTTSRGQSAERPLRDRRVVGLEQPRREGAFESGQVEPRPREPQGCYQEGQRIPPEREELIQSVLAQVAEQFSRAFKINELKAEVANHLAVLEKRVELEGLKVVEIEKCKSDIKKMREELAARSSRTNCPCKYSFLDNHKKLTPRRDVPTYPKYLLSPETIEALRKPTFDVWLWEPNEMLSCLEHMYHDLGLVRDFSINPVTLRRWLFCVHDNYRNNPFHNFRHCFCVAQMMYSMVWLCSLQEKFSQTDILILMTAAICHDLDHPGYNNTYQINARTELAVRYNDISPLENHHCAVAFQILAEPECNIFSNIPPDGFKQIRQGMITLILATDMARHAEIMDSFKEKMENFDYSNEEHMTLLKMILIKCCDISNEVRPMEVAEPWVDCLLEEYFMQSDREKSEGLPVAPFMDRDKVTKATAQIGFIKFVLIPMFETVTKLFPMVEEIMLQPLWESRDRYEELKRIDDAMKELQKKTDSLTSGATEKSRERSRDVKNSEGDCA

`O=c1[nH]c(CN2CC(Oc3cccnc3)C2)nn2c(C3CCOCC3)ncc12` [2-[[3-(3-pyridyloxy)azetidin-1-yl]methyl]-7-tetrahydropyran-4-yl-3H-imidazo[5,1-f][1,2,4]triazin-4-one] gave a pIC50 of 6.46.
